*1 amine or outer side, *2 acyl side, *3 side chain or, on linkers, in order; H or OH if unused. Where a SMILES comes first, the peptide text is derived from it. Bridges are numbered along the chain shown (N, C = ends). [ ]: non-standard residue; d: D form. Abu(4-yl) = O=C([C@H](CC[*:3])N[*:1])[*:2]; 2Nal = N[C@@H](Cc1ccc2ccccc2c1)C(=O)O; AEF = NCCOc1ccc(C[C@H](N)C(=O)O)cc1; αMeK = C[C@](N)(CCCCN)C(=O)O; Aib = CC(C)(N)C(=O)O
Columns and labels:
[1] = Inhibition of interleukin-23 binding to rat interleukin-23 receptor incubated for 2 hrs by competitive binding ELISA
[2] = biological target: T1, Interleukin-23 receptor (Homo sapiens, UniProt Q5VWK5); experiment: Inhibition of interleukin-23 receptor in human natural killer cells assessed as reduction in IL23/IL18-induced IFNgamma production incubated for 20 to 24 hrs by ELISA; format: cell-based
T1 sequence (Q5VWK5 whole entry): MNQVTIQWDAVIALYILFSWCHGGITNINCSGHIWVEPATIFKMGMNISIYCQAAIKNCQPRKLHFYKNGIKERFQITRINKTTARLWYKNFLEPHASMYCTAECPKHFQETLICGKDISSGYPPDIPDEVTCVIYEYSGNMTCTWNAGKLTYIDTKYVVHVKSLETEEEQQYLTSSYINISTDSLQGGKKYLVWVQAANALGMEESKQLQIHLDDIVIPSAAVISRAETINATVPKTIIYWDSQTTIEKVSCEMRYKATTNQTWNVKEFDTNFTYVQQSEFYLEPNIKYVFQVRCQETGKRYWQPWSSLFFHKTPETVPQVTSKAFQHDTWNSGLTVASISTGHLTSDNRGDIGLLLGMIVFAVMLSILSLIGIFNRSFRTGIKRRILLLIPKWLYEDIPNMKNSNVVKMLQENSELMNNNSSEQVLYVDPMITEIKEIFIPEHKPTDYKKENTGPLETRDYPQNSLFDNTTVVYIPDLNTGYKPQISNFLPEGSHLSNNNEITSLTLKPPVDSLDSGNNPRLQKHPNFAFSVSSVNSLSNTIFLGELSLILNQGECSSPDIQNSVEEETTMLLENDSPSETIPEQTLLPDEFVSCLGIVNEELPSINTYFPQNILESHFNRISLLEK

[3] = biological target: T1, Interleukin-23 receptor; experiment: Inhibition of interleukin-23 receptor in human DB cells assessed as reduction in IL-23-stimulated STAT3 phosphorylation incubated for 30 mins by HTRF assay; format: cell-based
[4] = biological target: T1, Interleukin-23 receptor; experiment: Inhibition of interleukin-23 binding to human interleukin-23 receptor incubated for 2 hrs by competitive binding ELISA
[5] = Half life in simulated intestinal fluid at 20 uM by LC-MS/MS analysis; format: ADME
[6] = Half life in simulated gastric fluid at 20 uM by LC-MS/MS analysis; format: ADME
[7] = Half life in DTT at 50 uM up up to 120 mins by reverse phase HPLC and UV detection based assay; format: physicochemical

Structure (SMILES)	IC50 [1] [nM]	IC50 [2] [nM]	IC50 [3] [nM]	IC50 [4] [nM]	half-life at 20 µM [5] [h]	half-life at 20 µM [6] [h]	half-life at 50 µM [7] [h]
CC(=O)NCCCC[C@H](NC(=O)[C@](C)(CC(C)C)NC(=O)[C@H](Cc1ccc2ccccc2c1)NC(=O)[C@H](Cc1ccc(OCCN)cc1)NC(=O)[C@@H](NC(=O)[C@H](CCC(N)=O)NC(=O)[C@H](Cc1c[nH]c2ccccc12)NC(=O)[C@@H](NC(=O)[C@H](CCC(N)=O)NC(=O)[C@@H](NC(C)=O)C(C)(C)S)[C@@H](C)O)C(C)(C)S)C(=O)N[C@@H](CC(N)=O)C(=O)N[C@@H](CC(N)=O)C(N)=O	< 10	< 10	< 10	< 10	2 to 3	3 to 6	–
CC(=O)N[C@H]1CCSC[C@@H](C(=O)N[C@@H](Cc2ccc(OCCN)cc2)C(=O)N[C@@H](Cc2ccc3ccccc3c2)C(=O)NC(C)(C)C(=O)N[C@@H](CCC(N)=O)C(=O)N[C@@H](CC(N)=O)C(=O)NCC(N)=O)NC(=O)[C@H](CCC(N)=O)NC(=O)[C@H](Cc2c[nH]c3ccccc23)NC(=O)[C@H]([C@@H](C)O)NC(=O)[C@H](CCC(N)=O)NC1=O (Ac-[Abu(4-yl)]QTWQC[AEF][2Nal][Aib]QNG-NH2; thioether 1-6)	10 to 25	< 25	< 10	< 10	2 to 3	3 to 6	–
CC(=O)N[C@@H](CS)C(=O)N[C@@H](C)C(=O)N[C@@H](CC(=O)O)C(=O)N[C@@H](Cc1c[nH]c2ccccc12)C(=O)N[C@H](C(=O)N[C@@H](Cc1c[nH]c2ccccc12)C(=O)N[C@@H](CS)C(=O)N[C@@H](Cc1ccc(O)cc1)C(=O)N[C@@H](Cc1c[nH]c2ccccc12)C(=O)N[C@@H](Cc1cnc[nH]1)C(=O)N[C@H](C(=O)N[C@@H](Cc1ccccc1)C(=O)NCC(=O)N[C@@H](C)C(=O)N1CC[C@H]1C(=O)N[C@H](CCCCN)C(N)=O)[C@@H](C)O)C(C)C	–	–	–	–	–	–	0.167 to 2
CC(=O)N[C@H](C(=O)N[C@@H](CCC(N)=O)C(=O)N[C@H](C(=O)N[C@@H](Cc1c[nH]c2ccccc12)C(=O)N[C@@H](CCC(N)=O)C(=O)N[C@H](C(=O)N[C@@H](Cc1ccc(O)cc1)C(=O)N[C@@H](Cc1c[nH]c2ccccc12)C(=O)N[C@@H](CCC(C)C)C(=O)N[C@@H](CCC(=O)O)C(=O)N[C@@H](CC(N)=O)C(=O)NCC(N)=O)C(C)(C)S)[C@@H](C)O)C(C)(C)S	–	–	–	100 to 1000	< 1	–	> 2
CC(=O)NCCCC[C@H](NC(=O)[C@](C)(CCCCNC(C)=O)NC(=O)[C@H](Cc1ccc2ccccc2c1)NC(=O)[C@H](Cc1ccc(OCCNC(C)=O)cc1)NC(=O)[C@@H]1CSCC[C@H](NC(C)=O)C(=O)N[C@@H](CCC(N)=O)C(=O)N[C@@H]([C@@H](C)O)C(=O)N[C@@H](Cc2c[nH]c3ccccc23)C(=O)N[C@@H](CCC(N)=O)C(=O)N1)C(=O)N[C@@H](CC(N)=O)C(=O)NCC(N)=O	< 10	< 25	< 10	< 10	3 to 6	< 1	–
CC(=O)NCCCC[C@H](NC(=O)C(C)(C)NC(=O)[C@H](Cc1ccc2ccccc2c1)NC(=O)[C@H](Cc1ccc(OCCN)cc1)NC(=O)[C@@H](NC(=O)[C@H](CCC(N)=O)NC(=O)[C@H](Cc1c[nH]c2ccccc12)NC(=O)[C@@H](NC(=O)[C@H](CC(N)=O)NC(=O)[C@@H](NC(C)=O)C(C)(C)S)[C@@H](C)O)C(C)(C)S)C(=O)N[C@@H](CC(N)=O)C(=O)N[C@@H](CC(N)=O)C(N)=O	< 10	< 10	< 10	< 10	> 6	> 6	–
CC(=O)N[C@H]1CCSC[C@@H](C(=O)N[C@@H](Cc2ccc(OCCN)cc2)C(=O)N[C@@H](Cc2ccc3ccccc3c2)C(=O)N[C@@](C)(CCCCN)C(=O)N[C@@H](CCCCNC(=O)CC(C)C)C(=O)N[C@@H](CC(N)=O)C(=O)NCC(N)=O)NC(=O)[C@H](CCC(N)=O)NC(=O)[C@H](Cc2c[nH]c3ccccc23)NC(=O)[C@H]([C@@H](C)O)NC(=O)[C@H](CCC(N)=O)NC1=O	10 to 25	< 25	< 10	< 10	> 6	> 6	–
CC(=O)N[C@H]1CCSC[C@@H](C(=O)N[C@@H](Cc2ccc(OCCN)cc2)C(=O)N[C@@H](Cc2ccc3ccccc3c2)C(=O)N[C@@](C)(CCCCN)C(=O)N[C@@H](CCC(=O)O)C(=O)N[C@@H](CC(N)=O)C(=O)N[C@@H](CCC(N)=O)C(N)=O)NC(=O)[C@H](CCC(N)=O)NC(=O)[C@H](Cc2c[nH]c3ccccc23)NC(=O)[C@H]([C@@H](C)O)NC(=O)[C@H](CCC(N)=O)NC1=O (Ac-[Abu(4-yl)]QTWQC[AEF][2Nal][αMeK]ENQ-NH2; thioether 1-6)	< 10	< 25	< 10	< 10	3 to 6	3 to 6	–
CC(=O)NCCCC[C@H](NC(=O)C(C)(C)NC(=O)[C@H](Cc1ccc2ccccc2c1)NC(=O)[C@H](Cc1ccc(OCCN)cc1)NC(=O)[C@@H]1CSCC[C@H](NC(C)=O)C(=O)N[C@@H](CCC(N)=O)C(=O)N[C@@H]([C@@H](C)O)C(=O)N[C@@H](Cc2c[nH]c3ccccc23)C(=O)N[C@@H](CCC(N)=O)C(=O)N1)C(=O)N[C@@H](CC(N)=O)C(=O)N[C@@H](C)C(N)=O	10 to 25	< 25	< 10	< 10	1 to 2	< 1	–
CC(=O)N[C@H]1CCSC[C@@H](C(=O)N[C@@H](Cc2ccc(OCCN)cc2)C(=O)N[C@@H](Cc2ccc3ccccc3c2)C(=O)NC2(C(=O)N[C@@H](CCC(=O)O)C(=O)N[C@@H](CC(N)=O)C(=O)N[C@@H](CC(N)=O)C(N)=O)CCOCC2)NC(=O)[C@H](CCC(N)=O)NC(=O)[C@H](Cc2c[nH]c3ccccc23)NC(=O)[C@H]([C@@H](C)O)NC(=O)[C@H](CCC(N)=O)NC1=O	–	–	–	–	–	–	> 2
CC(=O)NCCCC[C@H](NC(=O)[C@@](C)(NC(=O)[C@H](Cc1ccc2ccccc2c1)NC(=O)[C@H](Cc1ccc(C(N)=O)cc1)NC(=O)[C@@H](NC(=O)[C@H](CCC(N)=O)NC(=O)[C@H](Cc1c[nH]c2ccccc12)NC(=O)[C@@H](NC(=O)[C@H](CCC(N)=O)NC(=O)[C@@H](NC(C)=O)C(C)(C)S)[C@@H](C)O)C(C)(C)S)C(C)C)C(=O)N[C@@H](CC(N)=O)C(=O)N[C@@H](CC(N)=O)C(N)=O	10 to 25	10 to 25	< 10	–	> 6	3 to 6	–
CC(=O)NCCCC[C@H](NC(=O)[C@@](C)(NC(=O)[C@H](Cc1ccc2ccccc2c1)NC(=O)[C@H](Cc1ccc(OCCN)cc1)NC(=O)[C@@H]1CSCC[C@H](NC(C)=O)C(=O)N[C@@H](CCC(N)=O)C(=O)N[C@@H]([C@@H](C)O)C(=O)N[C@@H](Cc2c[nH]c3ccccc23)C(=O)N[C@@H](CCC(N)=O)C(=O)N1)C(C)C)C(=O)N[C@@H](CC(N)=O)C(=O)NCC(N)=O	< 10	< 25	< 10	< 10	2 to 3	1 to 2	–
CC(=O)N[C@@H](CS)C(=O)N[C@@H](CCCNC(=N)N)C(=O)N[C@H](C(=O)N[C@@H](Cc1c[nH]c2ccccc12)C(=O)N[C@@H](CCC(=O)O)C(=O)N[C@@H](CS)C(=O)N[C@@H](Cc1ccc(O)cc1)C(=O)N[C@@H](Cc1c[nH]c2ccccc12)C(=O)N[C@@H](Cc1cnc[nH]1)C(=O)N[C@@H](CCC(=O)O)C(=O)N[C@@H](Cc1ccccc1)C(=O)NCC(N)=O)[C@@H](C)O (Ac-CRTWECYWHEFG-NH2)	–	–	–	< 500	–	–	< 0.167
CC(=O)N[C@H]1CCSC[C@@H](C(=O)N[C@@H](Cc2ccc(OCCN)cc2)C(=O)N[C@@H](Cc2ccc3ccccc3c2)C(=O)NC2(C(=O)N[C@@H](CCC(=O)O)C(=O)N[C@@H](CC(N)=O)C(=O)N[C@@H](CC(N)=O)C(N)=O)CCC2)NC(=O)[C@H](CCC(N)=O)NC(=O)[C@H](Cc2c[nH]c3ccccc23)NC(=O)[C@H]([C@@H](C)O)NC(=O)[C@H](CCC(N)=O)NC1=O	< 10	< 25	< 10	–	< 1	1 to 2	–
CC(=O)NCCCC[C@H](NC(=O)C(C)(C)NC(=O)[C@H](Cc1ccc2ccccc2c1)NC(=O)[C@H](Cc1ccc(OCCN)cc1)NC(=O)[C@@H](NC(=O)[C@H](CCC(N)=O)NC(=O)[C@H](Cc1c[nH]c2ccccc12)NC(=O)[C@@H](NC(=O)[C@H](CC(N)=O)NC(=O)[C@@H](NC(C)=O)C(C)(C)S)[C@@H](C)O)C(C)(C)S)C(=O)N[C@@H](CC(N)=O)C(=O)NCCC(N)=O	10 to 25	< 10	< 10	–	> 6	> 6	–
CC(=O)N[C@@H](CS)C(=O)N[C@@H](CCC(N)=O)C(=O)N[C@H](C(=O)N[C@@H](Cc1c[nH]c2ccccc12)C(=O)N[C@@H](CCC(N)=O)C(=O)N[C@@H](CS)C(=O)N[C@@H](Cc1ccc(O)cc1)C(=O)N[C@@H](Cc1c[nH]c2ccccc12)C(=O)N[C@@H](CCC(C)C)C(=O)N[C@@H](CCC(=O)O)C(=O)N[C@@H](CC(N)=O)C(=O)NCC(N)=O)[C@@H](C)O	–	–	–	–	–	–	0.167 to 2

Reference: ChEMBL document CHEMBL4417631, “Oral peptide inhibitors of interleukin-23 receptor and their use to treat inflammatory bowel diseases” (2017)
